Source: article PMC12067350, “Discovery of Thieno[3,2‑b]pyridine-5-carboxamide and 2,3-Difluorobenzamide Negative Allosteric Modulators of Metabotropic Glutamate Receptor Subtype 5” (ACS Medicinal Chemistry Letters, 2025)

Assay: Intrinsic clearance in rat liver microsomes
Format: in vitro ADME
Details: for CLint scaled at 0.75 h, 1 µM: pH 7.4, rat liver microsomes; for rat CLhep: predicted hepatic clearance from in vitro rat microsomal data
Description: Intrinsic Clearance in Rat and Human Liver Microsomes
The in vitro intrinsic clearance (CL int) was investigated in commercially obtained hepatic microsomes from rat and human donors using the substrate depletion (i.e., loss-of-parent vs. time, or t 1/2 method) approach with analyte detection via liquid chromatography-tandem mass spectrometry (LC-MS/MS). For each species, mean %parent remaining values at each time point were calculated from replicates raw data (analyte:IS peak area ratios) and used to determine in vitro t 1/2 and CLint.
Experiments were carried out using a robot-assisted (TECAN model Evo 200). Compound was incubated (1 µM final concentration) in buffer (100 mM potassium phosphate pH 7.4 with 3 mM MgCl2) containing hepatic microsomes (0.5 mg/mL final concentration) from multiple species, discretely, at 37 °C under constant orbital shaking. After 5 minutes (pre-incubation), reactions were initiated by addition of nicotinamide adenine dinucleotide phosphate (NADPH, 1 mM final concentration). At selected time intervals (0, 3, 7, 15, 25, and 45 minutes) post-addition of NADPH, aliquots (50 µL) were taken and placed into a 96-shallow-well plate containing ice cold acetonitrile (150 µL) with carbamazepine (IS, 50 nM). The plates were then centrifuged (3000 rcf at 4 °C) for 10 minutes. The supernatants were transferred to a new 96-shallow-well daughter plate and diluted (1:1 v/v) with water (Milli-Q filtered). The plates were then sealed in preparation for LC-MS/MS analysis (see below).
Raw LC-MS/MS peak area data generated from the assay samples were used to construct natural log-transformed %parent remaining vs. time plots (using t = 0 minute post-NADPH addition sample data as starting point set to 100%). In vitro compound half-life (t 1/2) values were obtained using the following […]
k is the slope from linear regression analysis of the natural log-transformed data (using means from Where all replicates at each time point). Resulting t 1/2 values were then used to calculate hepatic CLint values according to the following equation and with the use of species-specific scale-up factors for liver weight (grams) per total body weight (kg):
CL = 0.693 x 1 mL incubation x 45 mg microsomes x a gram liver
int in vitro t1/2 0.5 mg microsomes 1 gram liver kg body wt aScale-up factors used are 45 (rat) and 20 (human).1
Predicted hepatic clearance (CLhep) was calculated using the following equation: […]
Qh represents hepatic blood flow (mL/min/kg): 21 for human, 70 for rat, and 90 for mouse.

Row | SMILES | CLint scaled at 0.75 h, 1 µM | rat CLhep
1 | Cc1csc(NC(=O)c2cc(O[C@@H]3CCOC3)c3sccc3n2)n1 [19aA] | 143 mL/min/kg | 47.0 mL/min/kg
2 | Cc1csc(NC(=O)c2cc(O[C@@H]3CCOC3)cc(F)c2F)n1 [27cA] | 116 mL/min/kg | 43.7 mL/min/kg
